Tested on: ATF4 luciferase reporter in HEK293T cells
Test: ATF4-Luc assay (in vitro model of VWMD)
Format: cell-based, human
Settings: HEK293T cells carrying the ATF4 luciferase reporter, 1 μg/mL tunicamycin, One Glo luminescence
In short: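 Tunicamycin (1 μg/mL) stress with co-added compound for 7 hours in HEK293T cells stably carrying an ATF4 5′-UTR–luciferase reporter. EC50 values come from the luminescent signal (One Glo).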

Structure (SMILES): O=C(NC12CC(n3cc(NCCOC(F)(F)F)cn3)(C1)C2)[C@H]1C[C@@H](O)c2cc(Cl)ccc2O1 [Compound 437, (2R,4R)-6-chloro-4-hydroxy-N-[3-(4-{[2-(trifluoromethoxy)ethyl]amino}-1H-pyrazol-1-yl)bicyclo[1.1.1]pentan-1-yl]-3,4-dihydro-2H-1-benzopyran-2-carboxamide]
- EC50 (Homo sapiens, HEK-293T, 7 h): 10 to 50 nM

Structure (SMILES): O=C(CO[C@H]1C[C@@H](OC(F)(F)F)C1)NC12CC(NC(=O)[C@H]3C[C@H](O)c4cc(Cl)c(F)cc4O3)(C1)C2 [Compound 496, (2R,4S)-6-chloro-7-fluoro-4-hydroxy-N-[3-(2-{[(1s,3S)-3-(trifluoromethoxy)cyclobutyl]oxy}acetamido)bicyclo[1.1.1]pentan-1-yl]-3,4-dihydro-2H-1-benzopyran-2-carboxamide]
- EC50 (Homo sapiens, HEK-293T, 7 h): < 10 nM

Structure (SMILES): O=C(NC12CC(n3cc(-c4ccc(C(F)F)cn4)cn3)(C1)C2)[C@H]1C[C@@H](O)c2cc(Cl)ccc2O1 [Compound 568, (2R,4R)-6-chloro-N-(3-{4-[5-(difluoromethyl)pyridin-2-yl]-1H-pyrazol-1-yl}bicyclo[1.1.1]pentan-1-yl)-4-hydroxy-3,4-dihydro-2H-1-benzopyran-2-carboxamide]
- EC50 (Homo sapiens, HEK-293T, 7 h): < 10 nM

Structure (SMILES): O=C(NC12CC(OCC(=O)N3CC(COC(F)(F)F)C3)(C1)C2)[C@H]1C[C@@H](O)c2cc(Cl)ccc2O1 [Compound 335, (2R,4R)-6-chloro-4-hydroxy-N-[3-(2-oxo-2-{3-[(trifluoromethoxy)methyl]azetidin-1-yl}ethoxy)bicyclo[1.1.1]pentan-1-yl]-3,4-dihydro-2H-1-benzopyran-2-carboxamide]
- EC50 (Homo sapiens, HEK-293T, 7 h): 50 to 250 nM

Structure (SMILES): C[C@@H](COC(F)(F)F)Oc1cnn(C23CC(NC(=O)[C@H]4C[C@@H](O)c5cc(C(F)(F)F)ccc5O4)(C2)C3)c1 [Compound 441, (2R,4R)-4-hydroxy-N-[3-(4-{[(2S)-1-(trifluoromethoxy)propan-2-yl]oxy}-1H-pyrazol-1-yl)bicyclo[1.1.1]pentan-1-yl]-6-(trifluoromethyl)-3,4-dihydro-2H-1-benzopyran-2-carboxamide]
- EC50 (Homo sapiens, HEK-293T, 7 h): 10 to 50 nM

Structure (SMILES): O=C(CO[C@H]1C[C@@H](OC(F)(F)F)C1)NC12CCC(NC(=O)[C@H]3C[C@@H](O)c4cc(Cl)ccc4O3)(CC1)C[C@@H]2O [Compound 117, (2R,4R)-6-chloro-4-hydroxy-N-[(3S)-3-hydroxy-4-(2-{[(1s,3R)-3-(trifluoromethoxy)cyclobutyl]oxy}acetamido)bicyclo[2.2.2]octan-1-yl]-3,4-dihydro-2H-1-benzopyran-2-carboxamide]
- EC50 (Homo sapiens, HEK-293T, 7 h): < 10 nM

Structure (SMILES): O=C(COc1ccc(C(F)(F)F)cc1)NC12CC(n3cc(C(=O)N4CC[C@H](OC(F)(F)F)C4)cn3)(C1)C2 [Compound 604, N-(3-{4-[(3S)-3-(trifluoromethoxy)pyrrolidine-1-carbonyl]-1H-pyrazol-1-yl}bicyclo[1.1.1]pentan-1-yl)-2-[4-(trifluoromethyl)phenoxy]acetamide]
- EC50 (Homo sapiens, HEK-293T, 7 h): < 10 nM

Structure (SMILES): CCOC(=O)OC[C@@H]1C[C@H]1c1cn(C23CC(NC(=O)[C@H]4C[C@@H](O)c5cc(Cl)ccc5O4)(C2)C3)nn1 (mixture of isomers) [Compound 543, ((1RS,2RS)-2-[1-(3-{[(2R,4R)-6-chloro-4-hydroxy-3,4-dihydro-2H-1-benzopyran-2-carbonyl]amino}bicyclo[1.1.1]pentan-1-yl)-1H-1,2,3-triazol-4-yl]cyclopropyl)methyl ethyl carbonate]
- EC50 (Homo sapiens, HEK-293T, 7 h): < 10 nM

Structure (SMILES): O=C(NC12CC(c3cnc(OCCCOC(F)(F)F)o3)(C1)C2)[C@H]1C[C@@H](O)c2cc(Cl)ccc2O1 [Compound 415, (2R,4R)-6-chloro-4-hydroxy-N-(3-{2-[3-(trifluoromethoxy)propoxy]-1,3-oxazol-5-yl}bicyclo[1.1.1]pentan-1-yl)-3,4-dihydro-2H-1-benzopyran-2-carboxamide]
- EC50 (Homo sapiens, HEK-293T, 7 h): < 10 nM

Structure (SMILES): CC1(C(F)(F)F)CCCN1C(=O)c1cnn(C23CC(NC(=O)[C@H]4C[C@@H](O)c5cc(Cl)ccc5O4)(C2)C3)c1 (stereo partly drawn) [Compound 328, (2R,4R)-6-chloro-4-hydroxy-N-(3-{4-[2-methyl-2-(trifluoromethyl)pyrrolidine-1-carbonyl]-1H-pyrazol-1-yl}bicyclo[1.1.1]pentan-1-yl)-3,4-dihydro-2H-1-benzopyran-2-carboxamide]
- EC50 (Homo sapiens, HEK-293T, 7 h): 50 to 250 nM

Structure (SMILES): O=C(COC12CC(NC(=O)[C@H]3C[C@@H](O)c4cc(Cl)ccc4O3)(C1)C2)N[C@H]1C[C@@H](OC(F)(F)F)C1 [Compound 342, (2R,4R)-6-chloro-4-hydroxy-N-[3-(2-oxo-2-{[cis-3-(trifluoromethoxy)cyclobutyl]amino}ethoxy)bicyclo[1.1.1]pentan-1-yl]-3,4-dihydro-2H-1-benzopyran-2-carboxamide]
- EC50 (Homo sapiens, HEK-293T, 7 h): 10 to 50 nM

Structure (SMILES): O=C(NC12CC(n3cc(OCCOC(F)(F)F)cn3)(C1)C2)C1COc2cc(Cl)c(Cl)cc2O1 (stereo not shown) [Compound 458, 6,7-dichloro-N-(3-{4-[2-(trifluoromethoxy)ethoxy]-1H-pyrazol-1-yl}bicyclo[1.1.1]pentan-1-yl)-2,3-dihydro-1,4-benzodioxine-2-carboxamide]
- EC50 (Homo sapiens, HEK-293T, 7 h): 10 to 50 nM

Structure (SMILES): O=C(COc1ccc(Cl)c(F)c1)NC12CC(c3ccc(OCCCOC(F)(F)F)nc3)(C1)C2 [Compound 455, 2-(4-chloro-3-fluorophenoxy)-N-(3-{6-[3-(trifluoromethoxy)propoxy]pyridin-3-yl}bicyclo[1.1.1]pentan-1-yl)acetamide]
- EC50 (Homo sapiens, HEK-293T, 7 h): 50 to 250 nM

Structure (SMILES): O=C(NC12CC(n3cc(OCCOC(F)(F)F)cn3)(C1)C2)C1CNc2cc(C(F)(F)F)c(F)cc2O1 (stereo not shown) [Compound 592, 7-fluoro-N-(3-{4-[2-(trifluoromethoxy)ethoxy]-1H-pyrazol-1-yl}bicyclo[1.1.1]pentan-1-yl)-6-(trifluoromethyl)-3,4-dihydro-2H-1,4-benzoxazine-2-carboxamide]
- EC50 (Homo sapiens, HEK-293T, 7 h): 10 to 50 nM

Structure (SMILES): O=C(NC12CC(n3cc(O[C@H]4C[C@@H](COC(F)(F)F)C4)cn3)(C1)C2)[C@H]1C[C@@H](O)c2cc(Cl)ccc2O1 [Compound 589, (2R,4R)-6-chloro-4-hydroxy-N-{3-[4-({(1s,3S)-3-[(trifluoromethoxy)methyl]cyclobutyl}oxy)-1H-pyrazol-1-yl]bicyclo[1.1.1]pentan-1-yl}-3,4-dihydro-2H-1-benzopyran-2-carboxamide]
- EC50 (Homo sapiens, HEK-293T, 7 h): 10 to 50 nM

Structure (SMILES): O=C(CO[C@H]1C[C@@H](OC(F)(F)F)C1)NC12CC(NC(=O)[C@H]3CC(O)c4cc(Cl)ccc4O3)(C1)C2 (single isomer, unassigned) [Compound 293]
- EC50 (Homo sapiens, HEK-293T, 7 h): < 10 nM

Structure (SMILES): O=C(NC12CC(OCC(=O)N3CC(OC(F)(F)F)C3)(C1)C2)[C@H]1C[C@@H](O)c2cc(Cl)ccc2O1 [Compound 333, (2R,4R)-6-chloro-4-hydroxy-N-(3-{2-oxo-2-[3-(trifluoromethoxy)azetidin-1-yl]ethoxy}bicyclo[1.1.1]pentan-1-yl)-3,4-dihydro-2H-1-benzopyran-2-carboxamide]
- EC50 (Homo sapiens, HEK-293T, 7 h): 50 to 250 nM

Structure (SMILES): O=C(N[C@@H]1CC[C@@H](C(=O)N2CC(c3ccc(C(F)(F)F)cc3)C2)OC1)[C@H]1C[C@@H](O)c2cc(Cl)ccc2O1 [Compound 322, (2R,4R)-6-chloro-4-hydroxy-N-[(3R,6S)-6-{3-[4-(trifluoromethyl)phenyl]azetidine-1-carbonyl}oxan-3-yl]-3,4-dihydro-2H-1-benzopyran-2-carboxamide]
- EC50 (Homo sapiens, HEK-293T, 7 h): < 10 nM

Structure (SMILES): O=C(NC12CC(n3cc(-c4ccc(OC(F)F)nc4)cn3)(C1)C2)[C@H]1C[C@@H](O)c2cc(Cl)ccc2O1 [Compound 327, (2R,4R)-6-chloro-N-(3-{4-[6-(difluoromethoxy)pyridin-3-yl]-1H-pyrazol-1-yl}bicyclo[1.1.1]pentan-1-yl)-4-hydroxy-3,4-dihydro-2H-1-benzopyran-2-carboxamide]
- EC50 (Homo sapiens, HEK-293T, 7 h): < 10 nM

Structure (SMILES): O=C(NC12CC(n3cc(C(=O)N4CC(COC(F)(F)F)C4)cn3)(C1)C2)[C@H]1C[C@@H](O)c2cc(Cl)ccc2O1 [Compound 329, (2R,4R)-6-chloro-4-hydroxy-N-[3-(4-{3-[(trifluoromethoxy)methyl]azetidine-1-carbonyl)-1H-pyrazol-1-yl}bicyclo[1.1.1]pentan-1-yl]-3,4-dihydro-2H-1-benzopyran-2-carboxamide]
- EC50 (Homo sapiens, HEK-293T, 7 h): < 10 nM

Structure (SMILES): O=C(NC12CC(c3ccc(OCCOC(F)(F)F)nc3)(C1)C2)[C@H]1C[C@@H](O)c2cc(Cl)ccc2O1 [Compound 450, (2R,4R)-6-chloro-4-hydroxy-N-(3-{6-[2-(trifluoromethoxy)ethoxy]pyridin-3-yl}bicyclo[1.1.1]pentan-1-yl)-3,4-dihydro-2H-1-benzopyran-2-carboxamide]
- EC50 (Homo sapiens, HEK-293T, 7 h): 50 to 250 nM

Structure (SMILES): O=C(COc1ccc(Cl)c(F)c1)NC12CC(n3cc(OCCCOC(F)(F)F)cn3)(C1)C2 [Compound 607, 2-(4-chloro-3-fluorophenoxy)-N-(3-{4-[3-(trifluoromethoxy)propoxy]-1H-pyrazol-1-yl}bicyclo[1.1.1]pentan-1-yl)acetamide]
- EC50 (7 hours): < 10 nM

Structure (SMILES): O=C(NC12CC(n3cc(-c4ccc(C(F)(F)F)cn4)cn3)(C1)C2)[C@H]1C[C@@H](O)c2cc(C(F)(F)F)c(F)cc2O1 [Compound 484, (2R,4R)-7-fluoro-4-hydroxy-6-(trifluoromethyl)-N-(3-{4-[5-(trifluoromethyl)pyridin-2-yl]-1H-pyrazol-1-yl}bicyclo[1.1.1]pentan-1-yl)-3,4-dihydro-2H-1-benzopyran-2-carboxamide]
- EC50 (Homo sapiens, HEK-293T, 7 h): < 10 nM

Structure (SMILES): O=C(N[C@H]1CC[C@H](n2cc(OCCCC(F)(F)F)cn2)CC1)[C@H]1C[C@@H](O)c2cc(Cl)ccc2O1 [Compound 526, (2R,4R)-6-chloro-4-hydroxy-N-{(1r,4R)-4-[4-(4,4,4-trifluorobutoxy)-1H-pyrazol-1-yl]cyclohexyl}-3,4-dihydro-2H-1-benzopyran-2-carboxamide]
- EC50 (Homo sapiens, HEK-293T, 7 h): 10 to 50 nM

Structure (SMILES): O=C(COc1ccc(Cl)c(F)c1)NC12CC(n3cc([C@H]4[C@@H]5CN(CC(F)(F)F)C[C@@H]54)cn3)(C1)C2 [Compound 625, 2-(4-chloro-3-fluorophenoxy)-N-(3-{4-[(1R,5S,6s)-3-(2,2,2-trifluoroethyl)-3-azabicyclo[3.1.0]hexan-6-yl]-1H-pyrazol-1-yl}bicyclo[1.1.1]pentan-1-yl)acetamide]
- EC50 (Homo sapiens, HEK-293T, 7 h): < 10 nM
